Where two headings read alike, the source gives them in different places.
Columns and labels:
[1] = CTC profiles (compressibility, tabletability, compactability) of rucaparib salt intra granular formulations; assay type: physicochemical; details: for formation of compacts: pure API without excipients, maleate also at 90% loading, 100 mg compacts
Source text: The most relevant and broadly accepted approach to assessing compression evaluation of different formulations (and different API salts) is by measuring the interrelationships of compression stress, solid fraction, and tensile strength using a compaction simulator. These parameters are related to each other in a set of relationships referred to as compressibility, tabletability, and compactability profiles (i.e., CTC Profiles) (Tye, Sun, Amidon, J. Pharm. Sci, 94: 465-472, (2005)). Focus was on the intra granular blend rather than the final blend because nearly all of the lead formulation is processed through dry granulation; only a small portion is extra granular. Additionally, the extra granular lubrication step at small scale is not representative of downstream pilot or commercial processing and risks masking intrinsic compressibility properties. For the provided lot of each salt form, formulations were evaluated at 100%, 90%, 75%, and 60% of the final tablet formulation (this correlates to 100%, 90.68%, 75.57%, and 60.45% intra granular components). CTC profiles for each API and formulation were determined by compressing (Texture Technologies model TA.XT Plus Texture Analyzer), in triplicate, 1⁄4'' round flat-faced 100 mg compacts using a linear sawtooth strain profile at 5 mm/sec velocity to four pre-programmed peak forces encompassing roller compaction and tableting compression stress ranges (e.g., up to 240 MPa). The compacts were then evaluated for physical dimensions, weight, and hardness. […] The maximum acceptable compression stress considered within normal ranges of a commercial rotary tablet press is approximately 250 MPa. Similarly, a typical target tensile strength for tablets is 2 MPa; such tablets generally have low friability, and are suitable for downstream handling and film coating. Thus, if a given formulation can be compressed to a tensile strength of 2 MPa at a compression stress of less than 250 MPa, it is considered to have acceptable compressibility.

[2] = Hygroscopicity of rucaparib salts; assay type: physicochemical; details: compared to other salts of rucaparib
[3] = as stated in U.S. Pat. No. 8,754,072; compared to other salt forms; cited from earlier work
[4] = Drug Load 60%, Compression Stress 47.9 MPa
[5] = Drug Load 60%, Compression Stress 80.3-80.4 MPa
[6] = Drug Load 60%, Compression Stress 176.0-177.0 MPa
[7] = Drug Load 60%, Compression Stress 239.5-240.4 MPa
[8] = Drug Load 75%, Compression Stress 48.3-48.5 MPa
[9] = Drug Load 75%, Compression Stress 80.5-80.8 MPa
[10] = Drug Load 75%, Compression Stress 176.8-177.8 MPa
[11] = Drug Load 75%, Compression Stress 240.1-240.7 MPa

Tensile Strength [1, 4] [MPa]	Tensile Strength [1, 5] [MPa]	Tensile Strength [1, 6] [MPa]	Tensile Strength [1, 7] [MPa]	Tensile Strength [1, 8] [MPa]	Tensile Strength [1, 9] [MPa]	Tensile Strength [1, 10] [MPa]	Tensile Strength [1, 11] [MPa]	formation of compacts [1]	hygroscopicity [2]	tabletability, fold lower than the camsylate salt ([1]; 60 and 75% API loading)	drug loading needed to obtain tablets with sufficient strength ([1]; estimated, target >70%) [%]	Compound	hygroscopicity [3]
0.6	1.3	2.6	3.1	0.6	1.1	2.3	2.8	formed good compacts	low hygroscopicity			CNCc1ccc(-c2[nH]c3cc(F)cc4c3c2CCNC4=O)cc1 [Camsylate, Rucaparib Camsylate]	less hygroscopic
0.3	0.6	1.2	1.4	0.2	0.4	0.8	0.8	not able to be formed		2-2.5 ×	< 50	Rucaparib Maleate	less hygroscopic
